Measured values: patent publication US4521537A, “Spiro[2H-1,4-benzodioxepin-3(5H)4'-piperidine and -3'-pyrrolidine] compounds and their use as antihypertensive agents” (Hoechst-Roussel Pharmaceuticals Incorporated, priority 1984, dated 1985)
Counter-ions that a name gives are not always drawn. Like-named read-outs stand apart in the source and are kept apart here.

Key:
mice = test: phenylquinone-induced writhing test in mice (PQW), analgesia; type: in vivo, male, CD-1 mice; details: Mus musculus, read-out: PQW % (percent inhibition of writhing); for change in vivo at 20 mg/kg: 20 mg/kg SC
Method: Compounds of this invention produce analgesia when administered to mammals. A phenylquinone-induced writhing test in mice (PQW) was used as an assay to detect analgesia. The procedure employed was a modification of Siegmund, E., Cadmus, R. and Lu, G: Proc. Soc. Exptl. Bio. Med., 95: 729 (1957). 12.5 mg of phenyl-p-benzoquinone were dissolved in 5 ml of 95% ethanol and q.s. to 100 ml with distilled water and administered to mice (10 ml/kg, i.p.). This produces a characteristic "writhe" which is defined as an inward rotation of one or more feet with twisting and turning of the trunk, drawing in of the abdominal wall, lordosis and arching of the back.
A total of 28 male, CD-1 mice (18 to 30 grams) were employed for a time response. Animals recived food and water ad libitum. Drugs to be tested were prepared with distilled water and, if insoluble, one drop of a suitable surfactant was added.
Twenty animals (5/group) were administered the drug 15, 30, 45 and 60 minutes prior to phenylquinone injections. Control animals (2/group) received an equal amount of vehicle. After the administration of phenylquinone the mice were placed separately into one-liter beakers and 5 minutes were allowed to lapse. The mice were then observed for a period of 10 minutes and the number of writhes were recorded for each animal. The formula for computing percent inhibition is: [formula]
The time period with the greatest percent of inhibition is considered the peak time.
A dose range is run in the same fashion as a time response except 10 animals per group were tested at the peak time of drug activity. Fifty animals, 4 drug groups, and a vehicle control were employed. Animals were dosed and tested in a randomized manner. An estimated ED50 was calculated by a computer linear regression analysis.

[1] = system: spontaneous hypertensive rat; test: antihypertensive activity, spontaneous hypertensive rat (SHR) test, indirect tail cuff method; type: in vivo
Method: Compounds of this invention are useful as antihypertensive agents due to their ability to depress blood pressure in mammals. Antihypertensive activity is measured in the spontaneous hypertensive rat by the indirect tail cuff method described by A. Schwartz, Ed., Methods in Pharmacology, Vol. page 135, Appleton Century Crafts, New York (1971). […] The drop in blood pressure is measured on the third day following administration. The antihypertensive activity is expressed as mm Hg decrease in mean arterial blood pressure.

[2] = Table I, 50 mg/kg PO, three days
[3] = Table I, 3 mg/kg PO, three days
[4] = Table I, 10 mg/kg PO, three days

CC1Oc2c(Cl)cccc2COC12CCN(CCCC(c1ccccc1)c1ccccc1)CC2 (stereo not shown) [Example 74, 1'-(4,4-Diphenylbutyl)-9-chloro-2-methylspiro[2H-1,4-benzodioxepin-3(5H)4'-piperidine]hydrochloride]
change in vivo at 20 mg/kg (mice; Table III): -25%

CC1Oc2ccc(Cl)cc2COC12CCN(C(c1ccc(F)cc1)c1ccc(F)cc1)CC2 (stereo not shown) [Example 82, 7-Chloro-2-methyl-1'-bis(4-fluorophenyl)methylspiro[2H-1,4-benzodioxepin-3(5H)4'-piperidine]hydrochloride]
change in vivo at 20 mg/kg (mice; Table III): -30%

CC1Oc2ccc(Cl)cc2COC12CCN(CCCC(C1CCCCC1)C1CCCCC1)CC2 (stereo not shown) [Example 87, 1'-(4,4-Dicyclohexylbutyl)-7-chloro-2-methylspiro[2H-1,4-benzodioxepin-3(5H)4'-piperidine]hydrochloride]
SHR mm Hg (decrease in mean arterial blood pressure) ([1]; Table III, 50 mg/kg PO): -69 mm Hg

CC1Oc2ccccc2COC12CCN(CCCCC(c1ccc(F)cc1)c1ccc(F)cc1)CC2 (stereo not shown) [Example 84, 2-Methyl-1'-[5,5-bis(4-fluorophenyl)pentyl]spiro[2H-1,4-benzodioxepin-3(5H)4'-piperidine]hydrochloride]
change in vivo at 20 mg/kg (mice; Table III): -34%

CC1Oc2ccc(Cl)cc2COC12CCN(CCC(c1ccccc1)c1ccccc1)CC2 (stereo not shown) [Example 20, 7-Chloro-2-methyl-1'-(3,3-diphenylpropyl)spiro[2H-1,4-benzodioxepin-3(5H)4'-piperidine]hydrochloride]
SHR mm Hg (decrease in mean arterial blood pressure) [1, 2]: -15 mm Hg

CC1Oc2ccc(Cl)cc2COC12CCN(CCC=C(c1ccccc1)c1ccccc1)CC2 (stereo not shown) [Example 16, 1'-[4,4-Diphenyl-3-butenyl]-7-chloro-2-methylspiro[2H-1,4-benzodioxepin-3(5H)4'-piperidine]oxalate]
SHR mm Hg (decrease in mean arterial blood pressure) [1, 2]: -47 mm Hg

CC1Oc2ccc([N+](=O)[O-])cc2COC12CCNCC2 (stereo not shown) [Example 81, 2-Methyl-7-nitrospiro[2H-1,4-benzodioxepin-3(5H)4'-piperidine]hydrochloride]
change in vivo at 20 mg/kg (mice; Table III): -80%

CC1Oc2cc(Cl)ccc2COC12CCNCC2 (stereo not shown) [Example 65, 8-Chloro-2-methylspiro[2H-1,4-benzodioxepin-3(5H)4'-piperidine]oxalate]
change in vivo at 10 mg/kg (mice; sc): -98%

CC1Oc2ccccc2COC12CCN(CCCC(c1ccc(Cl)cc1)c1ccc(Cl)cc1)CC2 (stereo not shown) [Example 15, 1'-[4,4-Bis(4-chlorophenyl)butyl]-2-methylspiro[2H-1,4-benzodioxepin-3(5H)4'-piperidine]oxalate]
SHR mm Hg (decrease in mean arterial blood pressure) [1, 2]: -27 mm Hg

CC1Oc2ccccc2COC12CCN(CCN(C)C)CC2 (stereo not shown) [Example 58, 1'-[2-(N,N-dimethylamino)ethyl]-2-methylspiro[2H-1,4-benzodioxepin-3(5H)4'-piperidine]dihydrochloride]
change in vivo at 20 mg/kg (mice; Table II): -6%

CC1Oc2ccc(Cl)cc2COC12CCN(CCCC(c1ccccc1)c1ccccc1)CC2 (stereo not shown) [Example 17, 1'-[4,4-Diphenylbutyl]-7-chloro-2-methylspiro[2H-1,4-benzodioxepin-3(5H)4'-piperidine]oxalate]
SHR mm Hg (decrease in mean arterial blood pressure) [1, 3]: -23 mm Hg | SHR mm Hg (decrease in mean arterial blood pressure) [1, 2]: -84 mm Hg

CC1Oc2cc(Cl)ccc2COC12CCN(CC#N)CC2 (stereo not shown) [Example 66, 8-Chloro-1'-cyanomethyl-2-methylspiro[2H-1,4-benzodioxepin-3(5H)4'-piperidine]]
change in vivo at 20 mg/kg (mice; Table II): -9%

CC1Oc2ccccc2COC12CCN(CCCC1(c3ccc(F)cc3)OCCO1)CC2 (stereo not shown) [Example 9, 2-Methyl-1'-[3-[2-(4-fluorophenyl)-1,3-dioxolan-2yl]propyl]spiro[2H-1,4-benzodioxepin-3(5H)4'-piperidine]maleate]
SHR mm Hg (decrease in mean arterial blood pressure) [1, 2]: -34 mm Hg

CC1Oc2ccc([N+](=O)[O-])cc2COC12CCN(CCCC(c1ccc(F)cc1)c1ccc(F)cc1)CC2 (stereo not shown) [Example 83, 1'-[4,4-Bis(4-fluorophenyl)butyl]-2-methyl-7-nitrospiro[2H-1,4-benzodioxepin-3(5H)4'-piperidine]hydrochloride]
SHR mm Hg (decrease in mean arterial blood pressure) ([1]; Table III, 3 mg/kg PO): -65 mm Hg

CC1Oc2ccc(Cl)cc2COC12CCN(CCC=C(c1ccc(F)cc1)c1ccc(F)cc1)CC2 (stereo not shown) [Example 19, 1'-[4,4-Bis(4-fluorophenyl)-3-butenyl]-7-chloro-2-methylspiro[2H-1,4-benzodioxepin-3(5H)4'-piperidine]oxalate]
SHR mm Hg (decrease in mean arterial blood pressure) [1, 4]: -43 mm Hg

C[C@](N)(Cc1ccc(O)c(O)c1)C(=O)O [α-methyl dopa, reference compound]
SHR value ([1]; similar test, 50 mg/kg PO for five days): -40 mm Hg

CC1Oc2ccccc2COC12CCNCC2 (stereo not shown) [Example 36, 2-Methylspiro[2H-1,4-benzodioxepin-3(5H)4'-piperidine]oxalate]
SHR mm Hg (decrease in mean arterial blood pressure) [1, 2]: -42 mm Hg

CCCCCN1CCC2(CC1)OCc1ccccc1OC2C (stereo not shown) [Example 54, 2-Methyl-1'-pentylspiro[2H-1,4-benzodioxepin-3(5H)4'-piperidine]oxalate]
change in vivo at 20 mg/kg (mice; Table II): -36%

CC1Oc2ccc(F)cc2COC12CCN(CCCC(c1ccccc1)c1ccccc1)CC2 (stereo not shown) [Example 41, 1'-(4,4-Diphenylbutyl)-7-fluoro-2-methylspiro[2H-1,4-benzodioxepin-3(5H)4'-piperidine]hydrochloride]
SHR mm Hg (decrease in mean arterial blood pressure) [1, 2]: -34 mm Hg

CC1Oc2ccccc2COC12CCN(CCCC(Oc1ccc(F)cc1)c1ccc(F)cc1)CC2 (stereo not shown) [Example 24, 1'-[4-(4-Fluorophenoxy)-4-(4-fluorophenyl)butyl]-2-methylspiro[2H-1,4-benzodioxepin-3(5H)4'-piperidine]oxalate]
SHR mm Hg (decrease in mean arterial blood pressure) [1, 2]: -24 mm Hg

CC1Oc2ccccc2COC12CCN(CCCC(c1ccc(F)cc1)c1ccc(F)cc1)CC2 (stereo not shown) [Example 8, 1'-[4,4-Bis-(4-fluorophenyl)butyl]-2-methylspiro[2H-1,4-benzodioxepin-3(5H)4'-piperidine]oxalate]
SHR mm Hg (decrease in mean arterial blood pressure) [1, 2]: -102 mm Hg

CC1Oc2ccc(Br)cc2COC12CCN(CCCC(c1ccc(F)cc1)c1ccc(F)cc1)CC2 (stereo not shown) [Example 21, 7-Bromo-1'-[4,4-bis(4-fluorophenyl)butyl]-2-methylspiro[2H-1,4-benzodioxepin-3(5H)4'-piperidine]oxalate]
SHR mm Hg (decrease in mean arterial blood pressure) [1, 3]: -63 mm Hg | SHR mm Hg (decrease in mean arterial blood pressure) ([1]; Table I, 5 mg/kg PO, three days): -74 mm Hg

CC1Oc2ccccc2COC12CCN(CCCCc1ccc(F)cc1)CC2 (stereo not shown) [Example 14, 1'-[4-(4-Fluorophenyl)butyl]-2-methylspiro[2H-1,4-benzodioxepin-3(5H)4'-piperidine]hydrochloride]
SHR mm Hg (decrease in mean arterial blood pressure) [1, 2]: -34 mm Hg

CC1Oc2ccccc2COC12CCN(CCC=C(c1ccccc1)c1ccccc1)CC2 (stereo not shown) [Example 12, 1'-[4,4-Diphenyl-3-butenyl]-2-methylspiro[2H-1,4-benzodioxepin-3(5H)4'-piperidine]maleate]
SHR mm Hg (decrease in mean arterial blood pressure) [1, 2]: -20 mm Hg

CC1Oc2ccccc2COC12CCN(CCCC(O)c1ccc(F)cc1)CC2 (stereo not shown) [Example 23, 1'-[4-Hydroxy-4-(4-fluorophenyl)butyl]-2-methylspiro[2H-1,4-benzodioxepin-3(5H)4'-piperidine]]
SHR mm Hg (decrease in mean arterial blood pressure) [1, 4]: -31 mm Hg

CC1Oc2ccc(F)cc2COC12CCN(CCCC(c1ccc(F)cc1)c1ccc(F)cc1)CC2 (stereo not shown) [Example 42, 1'-[4,4-Bis(4-fluorophenyl)butyl]-7-fluoro-2-methylspiro[2H-1,4-benzodioxepin-3(5H)4'-piperidine]hydrochloride]
SHR mm Hg (decrease in mean arterial blood pressure) [1, 2]: -126 mm Hg

CC1Oc2ccccc2COC12CCN(CCCC(c1ccccc1)c1ccccc1)CC2 (stereo not shown) [Example 11, 1'-(4,4-Diphenylbutyl)-2-methylspiro[2H-1,4-benzodioxepin-3(5H)4'-piperidine]oxalate]
SHR mm Hg (decrease in mean arterial blood pressure) [1, 2]: -17 mm Hg

CC1Oc2ccccc2COC12CCN(CCC=C(c1ccc(F)cc1)c1ccc(F)cc1)CC2 (stereo not shown) [Example 10, 1'-[4,4-Bis(4-fluorophenyl)-3-butenyl]-2-methylspiro[2H-1,4-benzodioxepin-3(5H)4'-piperidine]maleate]
SHR mm Hg (decrease in mean arterial blood pressure) [1, 2]: -18 mm Hg

CC1Oc2ccc(Cl)cc2COC12CCN(CCCC(c1ccc(F)cc1)c1ccc(F)cc1)CC2 (stereo not shown) [Example 18, 1'-[4,4-Bis(4-fluorophenyl)butyl]-7-chloro-2-methylspiro[2H-1,4-benzodioxepin-3(5H)4'-piperidine]oxalate]
SHR mm Hg (decrease in mean arterial blood pressure) ([1]; Table I, 0.3 mg/kg PO, three days): -41 mm Hg
